Test results published in a melting point compilation (Tetko et al.; mined from patent text by program, amines drawn as free bases though some values may be those of a salt).

Compound | melting point [°C]
COC(=O)Nc1cnc2c(NC(=O)c3c(Cl)cccc3Cl)cccc2c1-n1ccnc1 | 236 to 238
CCOC(=O)CS(=O)CCSc1cc(C(C)(C)C)c(O)c(C(C)(C)C)c1 (centres undefined) | 110
Cc1cc(C)nc(NC(=O)Cc2ccc(Br)s2)c1 | 87
Cn1c(C(F)(F)F)cc(=O)n(-c2cc(OC(=O)NC3CCCCC3)c(Cl)cc2F)c1=O | 171 to 173
CC(=O)CC(=O)NCCNC(=O)OCc1ccccc1 | 116 to 118
CCOC(=O)c1ccc(C(OC(c2ccc(C(=O)OCC)cc2)c2ccc3c(c2)C(C)(C)CCC3(C)C)c2ccc3c(c2)C(C)(C)CCC3(C)C)cc1 (centres undefined) | 109 to 111
CC1COCc2nc3c(N)nc4ccc(OCc5cscn5)cc4c3n21 (centres undefined) | 240 to 242
Cc1ccc(C#CC(C)N(O)C(N)=O)cc1 (centres undefined) | 144
O=C(N[C@H](Cc1ccc(C(F)(F)F)cc1)[C@@H](O)c1ccc(Oc2ccccc2)cc1)c1cccc2c1C=CCCC2 (racemic) | 191 to 192
CCCCCCCCC(Sc1ccccn1)C(=O)Nc1cccc2cnccc12 (centres undefined) | 81 to 83
CCOC(=O)C1=C(C)NN=C(C(=O)OC)C1c1ccc([N+](=O)[O-])cc1 (centres undefined) | 205 to 206
Cn1cc(C(=O)c2ccc(Cl)cc2)cc1C(=O)CN1CCCCC1 | 129 to 130
CCCOC1CC2(C)C(CCC3C2CCC2(C)C(C(=O)CSCCCO)CCC32)CC1O (centres undefined) | 133 to 136
CC#Cc1ccc(C2CCC(C3CCC(CCC)CC3)CC2)cc1 (centres undefined) | 82
N#Cc1ccc2oc3cc(O)ccc3c2c1 | 270 to 271
CCOC(=O)c1cc(C)cc(-c2ccc(NC(=O)OCc3ccccc3)cc2)n1 | 184 to 185
CCCCn1c(=O)n(CCC)c(=O)c2c3n(nc21)CCCCN3C | 63 to 65
O=C1NC(=O)c2c(-c3ccccc3[N+](=O)[O-])ccc(-c3ccccc3)c21 | 224 to 226
Cc1cccc(-c2ccc3c(C(N)=O)nn(-c4ccc(S(N)(=O)=O)cc4)c3c2)c1 | 261 to 263
CN(C)C(=O)N(C(=O)Nc1ccccc1)c1ccccc1 | 105 to 107
COc1ccc(COc2cccnc2NC(=N)Nc2ccc(Cl)cc2)cc1 | 165 to 166
Nc1c(F)c(-c2ccc(C(F)(F)F)nc2)nc(C=O)c1Cl | 147 to 149
Clc1cccc(C2=NOCCS2)c1 | 65

Compound | melting point [°C]
CCC(CC)c1ccc(Cl)c2nc3n(c12)CC(C)N3c1cnc(N(C)C)cc1C (centres undefined) | 204 to 206
CSCC(C)(C)NC(=O)c1c(I)cccc1-c1ccc(C(F)(F)F)cc1 | 194 to 196
CCCCOc1cc2c(cc1C=Cc1ccc(C(=O)O)cc1)C(C)(C)CCC2(C)C | 194 to 196
O=C(CF)NCc1ccc2ccn(C3CCN(CCc4ccc(F)cc4)CC3)c2c1 | 106 to 108
C#CCN1CCC(OC)(c2cc(F)cc(Sc3ccc(C(C)=NO)cc3)c2)C1 (centres undefined) | 97 to 99
CCC(=O)Nc1cc(C(C)(C)C)[nH]n1 | 228 to 229
CC1(C)OC(=S)Nc2ccc(-c3cncc(Br)c3)cc21 | 252 to 253
CCCCC(Cc1cccnc1)(C(=O)O)S(=O)(=O)c1ccc(OC)cc1 (centres undefined) | 65
c1ccc2c(-c3nnn[nH]3)cccc2c1 | 205 to 206
COc1ccc(CNS(=O)(=O)CCCCl)cc1 | 78 to 80
CC(C)c1nc(CO)n(Cc2ccc([N+](=O)[O-])cc2)c1Sc1cc(Cl)cc(Cl)c1 | 192 to 194
O=C(O)c1ccccc1C(=O)N1Cc2ccccc2Cc2ccccc21 | 220 to 225
CCCC1CC2=CC(=O)CCC2C2CCC3(C)C(OC(C)=O)CCC3C12 (centres undefined) | 97 to 100
CC1COP(=O)(Cc2ccc(N)cc2)OC1 (centres undefined) | 158 to 159
O=C1C(=C2CCCN2Cc2ccccc2)c2ccccc2N1c1cccc(Cl)c1 | 72 to 75
CCSCCOC(=O)C(Br)=Cc1cc(-n2c(=O)cc(C(F)(F)F)n(C)c2=O)ccc1Cl | 118 to 120
C=CCN1C2CCC1C1CCC2N1C(c1ccc(C(=O)N(C)C)cc1)c1cccc(O)c1 (centres undefined) | 99 to 101
CCCCCCCCCCCCCCCCOCC(CF)COC(c1ccccc1)(c1ccccc1)c1ccccc1 (centres undefined) | 32
CC(C)C(O)(c1ccccc1)c1cc(Cl)ccc1O (centres undefined) | 114
CC[C@H](C)C(OCc1ccccc1)[C@@H]1[C@H]([N+](=O)[O-])[C@H](c2ccccc2)N[C@]1(C)C(=O)NCCC(=O)O (some centres undefined) | 104 to 105
CCCNS(=O)(=O)CCCCl | 47.5 to 48
COc1ccc([N+](=O)[O-])cc1N1CCNCC1 | 84 to 87
CO/N=C(/C(=O)O)c1ccc(OCCOc2ccc3ccccc3c2)s1 | 118 to 120

More lines, now with the values ahead:

melting point [°C] | Compound
202 to 203 | O=C1NC(=O)c2ccc(I)cc2/C1=C/Nc1ccc(CN2CCCCC2)cc1
141 to 142 | CCCOc1cc(-c2nc(-c3ccc(C(=O)OC)o3)cs2)ccc1OC
162 to 165 | CN(C)Cc1cccc(-c2cc(C(N)=O)ccc2C(N)=O)c1
160 to 163 | Cc1nc(C)c(Cl)c(NCc2nccc(SCCOCCn3c([N+](=O)[O-])cnc3C)c2C)n1
105 to 107 | Cc1c(C)c2c(c(C)c1N)CC(C)(CI)O2 (centres undefined)
152 to 154 | CCC(CC)Nc1cc(C)nc(Oc2c(C)cc(C)cc2C)c1NC(=O)CCl
85 to 95 | C[C@@H](Oc1ccc2c(c1)N(C)C(=O)N(c1ccc(Cl)cc1)S2(=O)=O)C(=O)O
251 | O=C(c1cc(C(F)(F)F)cc(C(F)(F)F)c1)N1CCC2(CC1)C(=O)NCN2c1ccccc1
192 to 194 | CCCCc1ccc2scc(NC(=O)C(=O)OC)c(=O)c2c1
27 to 31 | CCN(CC)CCCOc1ccc(-c2nnc(CSCCOc3ccccc3)o2)cc1
113 to 114 | COc1ccc2c(c1)c(CC(=O)OCc1ccc(Cl)cc1)c(C)n2C(=O)c1ccc(Cl)cc1
138 to 140 | N#Cc1ccc(-c2nc(CO)no2)cc1
160 to 165 | COC(=O)C=C(c1ccccc1)c1ccc2nc(N)n(S(=O)(=O)C(C)C)c2c1
78 to 79 | COC(=O)CCCC(=O)c1cc2c(c(S(=O)(=O)Cl)c1)OCC2
97 to 136 | CC(=O)Nc1cc(N(C)C)ccc1C1(c2ccc(N(C)C)cc2N(C)C)OC(=O)c2ccccc21 (centres undefined)
158 to 161 | CC(C)CC1(C)C(=O)NCCN1Cc1ccccc1 (centres undefined)
186 to 190 | Cc1ccc2c(O)cc(=O)oc2c1C
178 to 180 | CC(C)(C)c1ccc(C2OCC(CO)(NC(=O)c3c(Cl)cccc3Cl)CO2)cc1 (centres undefined)
170 to 172 | O=C(NCc1ccccc1)C12CC3CC(CC(C3)C1)C2
195 to 196 | CC(C)Oc1ccc(-c2noc(-c3ccc(CN4CC(C(=O)O)C4)cc3)n2)cc1Cl
121 to 122 | COc1ccc(-c2ccc(O)c(C3(C)CCCCC3)c2)cc1CC1SC(N2CCCC2)=NC1=O (centres undefined)
111 to 113 | O=C(c1ccc(Oc2ccccc2)c([N+](=O)[O-])c1)c1ccc(Oc2ccccc2)c([N+](=O)[O-])c1
272 to 274 | O=c1c2c(CCC(F)(F)F)n[nH]c2c2cccnc2n1-c1ccccc1
148 | Nc1ccc(Cl)nc1I
139 to 140 | COc1cccc(C(=O)O)c1-c1ccccc1OC(C)C
194 | CC(=O)Nc1nc(C)c(S(=O)(=O)NC(C)(C)CO)s1
106 to 108 | Cc1nscc1C(=O)NC1CC1

melting point [°C] | Compound
202 to 204 | CC1(C)c2cccn2-c2cc(F)c(F)cc2N1S(=O)(=O)c1ccc(O)cc1
> 225 | Nc1nc(-c2ccc(CCN3CCN(c4cccc5cccnc45)CC3)cc2)cs1
250 to 251 | N#Cc1cccc(C(=O)Nc2cccc(-c3cccc4c3/C(=C/c3ccc[nH]3)C(=O)N4)c2)c1
73 to 75 | CC(C)(CF)C(=O)C(Br)Oc1ccc(Cl)cc1 (centres undefined)
116 to 117 | CCc1cc(COc2nn(Cc3ccccc3)cc2CO)ccc1OCc1nc(-c2ccco2)oc1C
50 to 52 | O=C(NCCCCCCO)OC1CCN(C(=O)OCc2ccccc2)CC1
304 to 306 | COc1ccc(-n2cc(C#N)c(=O)[nH]c2=O)cc1
130 to 132 | CCc1n[nH]c(CC)c1CCCCCCOc1ccc([N+](=O)[O-])cc1Cl
231 to 233 | CCOC(=O)C1=C(C)NC(C)=C(C(=O)OCC)C1c1ccc(-n2ccnc2)cc1
201 to 203 | CCCc1nn(C)c2c(=O)[nH]c(Cc3ccc(N(CC)CC)cc3)nc12
148 to 149 | CCC1CN(Cc2ccccc2)c2c3c(nc4cccc(c24)O1)CCCC3 (centres undefined)
222 to 223 | Cn1nc(-c2cc3nccnc3[nH]2)cc1-c1ccccc1
103 to 105 | CCCCCCOc1ccc(-c2ccc(OCCCCCCBr)cc2)cc1
117 to 118 | COC(=O)NCc1ccc2ccn(C3CCN(CCc4ccc(F)cc4)CC3)c2c1
178 to 181 | COc1cc2c(CCNC(C)=O)cn(C(C)=O)c2cc1Cl
163 to 167 | CC1(C)CC(=NNC(=N)NN=C2CC(C)(C)NC(C)(C)C2)CC(C)(C)N1
174 to 175 | COc1cc(C=NNC(=O)c2ccc(O)c(N)c2)cc(OC)c1OCc1ccc(C(C)C)cc1
133 to 134 | CCCCS(=O)(=O)NC(=O)CCc1cc(OC(C)C)nn1Cc1ccc(Cl)cc1Cl
205 to 206 | COc1ccc(-c2nnc3cc(-c4ccccc4)c(OCc4ncn(C)n4)nn23)cc1
79 | CC(=O)SCC(=Cc1ccc(Oc2ccccc2)cc1)C(=O)NCCC(=O)OCc1ccccc1
63 to 65 | O=C(O)C(=O)c1ccc(C(F)(F)F)cc1
149 to 151 | On1c(-c2ccccc2)csc1=S
126 to 127 | Fc1ccc(N2CCN(Cc3ccc4c(c3)NCCN4)CC2)cc1
189 to 191 | Cc1cc2cc(CN3CCC(CCC(=O)N4CCCCC4)CC3)cnc2cc1NC(=O)c1ccc(-c2ccc(F)cc2)cc1
177 to 179 | CCOC(=O)C1=C(C)NC(C)=C(C(=O)OCC)C1c1c(SC)sc2ccccc12
122 to 125 | CN(C)Cc1cccc(CSCCNC2=NS(=O)N=C2N)c1 (centres undefined)
